Test results as given in patent publication US20210238184A1, “THERAPEUTIC COMPOUNDS” (Genentech, Inc., priority 2018, published 2021).

Columns and labels:
TEAD3 YAP50-100 = TEAD3 YAP50-100 (Homo sapiens, UniProt Q99594); experiment: TEAD3:YAP50-100 protein-protein interaction HTRF (TR-FRET) assay; settings: His-tagged TEAD YAP binding domain (aa 217-447), biotinylated YAP peptide aa 50-100; 30 min pre-incubation, 60 min at room temperature; read-out: TEAD3 YAP50-100 HTRF WuXi EC50
Description: (§1) Purified His-tagged TEAD protein (YAP Binding Domain, amino acids 217-447) is pre-incubated with Europium labelled anti-His antibody tracer (Perkin Elmer Cat #AD0110). Small molecule Inhibitors are then incubated with the TEAD-Eu protein complex for 30 minutes to allow for binding to TEAD protein. Biotinylated YAP peptide (AA's 50-100) that has been pre-incubated with streptavidin x1665 acceptor (CIS-Bio Cat #610SAXAC) is added to the compound-TEAD mix. The TEAD-YAP-inhibitor mixture is then incubated for 60 minutes at room temperature. All reactions are carried out in a polystyrene plate. After 60 minutes, the plate is read on a plate reader using TR-FRET mode with wavelengths of 665 nm/615 nm. If YAP binds to TEAD as expected, a TR-FRET signal results from the proximity of YAP and TEAD after binding. If an inhibitor such as peptide 17 (Selleckchem Cat #S8164) interferes with YAP-TEAD binding, the disruption of the YAP:TEAD interaction results in a decrease in TR-FRET signal. The potency of compounds as YAP:TEAD protein-protein interaction (PPi) inhibitors is determined by an IC50 or EC50 value generated using a non-linear four parameter curve fit.

TEAD2 YAP50-100 = TEAD2 YAP50-100 (Homo sapiens, UniProt Q15562); experiment: TEAD2:YAP50-100 protein-protein interaction HTRF (TR-FRET) assay; settings: His-tagged TEAD YAP binding domain (aa 217-447), biotinylated YAP peptide aa 50-100; 30 min pre-incubation, 60 min at room temperature; read-out: TEAD2 YAP50-100 HTRF WuXi EC50
Chain of TEAD2 YAP50-100 (Q15562 217-447): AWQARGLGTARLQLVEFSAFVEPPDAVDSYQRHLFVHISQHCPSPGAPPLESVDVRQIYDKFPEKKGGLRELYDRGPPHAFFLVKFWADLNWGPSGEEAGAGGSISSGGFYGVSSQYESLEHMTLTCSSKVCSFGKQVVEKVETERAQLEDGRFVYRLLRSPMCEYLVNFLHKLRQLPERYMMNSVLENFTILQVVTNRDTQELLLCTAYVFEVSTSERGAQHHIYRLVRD
Description: as §1

Chain of TEAD3 YAP50-100 (Q99594 216-435 limits assumed): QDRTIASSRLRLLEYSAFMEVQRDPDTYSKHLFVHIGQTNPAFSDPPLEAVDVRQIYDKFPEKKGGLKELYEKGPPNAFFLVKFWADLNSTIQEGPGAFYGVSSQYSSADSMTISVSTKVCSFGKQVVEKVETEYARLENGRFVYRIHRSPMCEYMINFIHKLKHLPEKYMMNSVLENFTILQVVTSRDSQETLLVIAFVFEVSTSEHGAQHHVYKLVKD

Row | SMILES | EC50 (TEAD3 YAP50-100) [nM] | EC50 (TEAD2 YAP50-100) [nM]
1 | CCOC(=O)c1cnn2c(=O)cc(-c3ccc(C4CCCC4(C)C)cc3)[nH]c12 (single isomer, unassigned) [Example 19] | 37 | 270
2 | CCOC(=O)c1cnn2c(=O)cc(-c3ccc(C4CCCC4(C)C)cc3)[nH]c12 (single isomer, unassigned) [Example 20] | 60 | 187
3 | CN(C)C(=O)c1cnn2c(=O)cc(-c3ccc(C4CCCC4(C)C)cc3)[nH]c12 (single isomer, unassigned) [Example 21] | 21 | 220
4 | CN(C)C(=O)c1cnn2c(=O)cc(-c3ccc(C4CCCC4(C)C)cc3)[nH]c12 (single isomer, unassigned) [Example 22] | 42 | 378
5 | C[C@H]1[C@@H](CF)CN1C(=O)c1cnn2c(=O)cc(-c3ccc(C4CCCCC4)cc3)[nH]c12 (single isomer, unassigned) [Example 45] | 43 | 8
6 | C[C@@H]1[C@H](CF)CN1C(=O)c1cnn2c(=O)cc(-c3ccc(C4CCCCC4)cc3)[nH]c12 (single isomer, unassigned) [Example 46] | 3100 | 755
7 | CCOC(=O)c1cnn2c(=O)cc(-c3ccc(C4CCC(F)(F)CC4)cc3)[nH]c12 [Example 1, Ethyl 5-(4-(4,4-difluorocyclohexyl)phenyl)-7-oxo-4,7-dihydropyrazolo[1,5-a]pyrimidine-3-carboxylate] | 41 | 263
8 | CCOC(=O)c1cnn2c(=O)cc(-c3ccc(C4CCCC4)cc3)[nH]c12 [Example 2, Ethyl 5-(4-cyclopentylphenyl)-7-oxo-4,7-dihydropyrazolo[1,5-a]pyrimidine-3-carboxylate] | 19 | 120
9 | CN(C)C(=O)c1cnn2c(=O)cc(-c3ccc(C4CCCC4)cc3)[nH]c12 [Example 3, 5-(4-Cyclopentylphenyl)-N,N-dimethyl-7-oxo-4,7-dihydropyrazolo[1,5-a]pyrimidine-3-carboxamide] | 16 | 342
10 | CCOC(=O)c1cnn2c(=O)cc(-c3ccc(C4CCCCC4)cc3)[nH]c12 [Example 4, Ethyl 5-(4-cyclohexylphenyl)-7-oxo-4,7-dihydropyrazolo[1,5-a]pyrimidine-3-carboxylate] | 19 | 66
11 | CN(CCO)C(=O)c1cnn2c(=O)cc(-c3ccc(C4CCCCC4)cc3)[nH]c12 [Example 5, 5-(4-cyclohexylphenyl)-N-(2-hydroxyethyl)-N-methyl-7-oxo-4,7-dihydropyrazolo[1,5-a]pyrimidine-3-carboxamide] | 567 | 1100
12 | CCN(C)C(=O)c1cnn2c(=O)cc(-c3ccc(C4CCCCC4)cc3)[nH]c12 [Example 6, 5-(4-Cyclohexylphenyl)-N-ethyl-N-methyl-7-oxo-4,7-dihydropyrazolo[1,5-a]pyrimidine-3-carboxamide] | 18 | 67
13 | CN(C)C(=O)c1cnn2c(=O)cc(-c3ccc(C4CCCCC4)cc3)[nH]c12 [Example 7, 5-(4-Cyclohexylphenyl)-N,N-dimethyl-7-oxo-4,7-dihydropyrazolo[1,5-a]pyrimidine-3-carboxamide] | 18 | 87
14 | O=C(c1cnn2c(=O)cc(-c3ccc(C4CCCCC4)cc3)[nH]c12)N1CCC1 [Example 8, 3-(Azetidine-1-carbonyl)-5-(4-cyclohexylphenyl)pyrazolo[1,5-a]pyrimidin-7(4H)-one] | 23 | 38
15 | CC1(O)CN(C(=O)c2cnn3c(=O)cc(-c4ccc(C5CCCCC5)cc4)[nH]c23)C1 [Example 9, 5-(4-Cyclohexylphenyl)-3-(3-hydroxy-3-methylazetidine-1-carbonyl)pyrazolo[1,5-a]pyrimidin-7(4H)-one] | 1300 | 333
16 | O=C(c1cnn2c(=O)cc(-c3ccc(C4CCCCC4)cc3)[nH]c12)N1CC(O)C1 [Example 10, 5-(4-Cyclohexylphenyl)-3-(3-hydroxyazetidine-1-carbonyl)pyrazolo[1,5-a]pyrimidin-7(4H)-one] | 72 | 548
17 | CC1CN(C(=O)c2cnn3c(=O)cc(-c4ccc(C5CCCCC5)cc4)[nH]c23)C1 [Example 11, 5-(4-Cyclohexylphenyl)-3-(3-methylazetidine-1-carbonyl)pyrazolo[1,5-a]pyrimidin-7(4H)-one] | 32 | 11

Row | SMILES | EC50 (TEAD3 YAP50-100) [nM] | EC50 (TEAD2 YAP50-100) [nM]
18 | O=C(c1cnn2c(=O)cc(-c3ccc(C4CCCCC4)cc3)[nH]c12)N1CC(F)(F)C1 [Example 12, 5-(4-Cyclohexylphenyl)-3-(3,3-difluoroazetidine-1-carbonyl)pyrazolo[1,5-a]pyrimidin-7(4H)-one] | 56 | 68
19 | CCOC(=O)c1cnn2c(=O)cc(-c3ccc(OC4CCCCC4)cc3)[nH]c12 [Example 13, Ethyl 5-(4-(Cyclohexyloxy)phenyl)-7-oxo-4,7-dihydropyrazolo[1,5-a]pyrimidine-3-carboxylate] | 66 | 793
20 | CCOC(=O)c1cnn2c(=O)cc(-c3ccc(Oc4ccccc4)c(C)c3)[nH]c12 [Example 14, Ethyl 5-(3-methyl-4-phenoxyphenyl)-7-oxo-4,7-dihydropyrazolo[1,5-a]pyrimidine-3-carboxylate] | 666 | 747
21 | CCOC(=O)c1cnn2c(=O)cc(-c3ccc(Oc4ccccc4)cc3)[nH]c12 [Example 15, Ethyl 7-oxo-5-(4-phenoxyphenyl)-4,7-dihydropyrazolo[1,5-a]pyrimidine-3-carboxylate] | 532 | 836
22 | CN(C)C(=O)c1cnn2c(=O)cc(-c3ccc(Oc4ccccc4)cc3)[nH]c12 [Example 16, /VA-Dimethyl-7-oxo-5-(4-phenoxyphenyl)-4,7-dihydropyrazolo[1,5-a]pyrimidine-3-carboxamide] | 1110 | 501
23 | CCNC(=O)c1cnn2c(=O)cc(-c3ccc(Oc4ccccc4)cc3)[nH]c12 [Example 17, N-Ethyl-7-oxo-5-(4-phenoxyphenyl)-4,7-dihydropyrazolo[1,5-a]pyrimidine-3-carboxamide] | 5000 | 55
24 | CCOC(=O)c1cnn2c(=O)cc(-c3ccc(N4CCCCC4)cc3)[nH]c12 [Example 18, Ethyl 7-oxo-5-(4-(piperidin-1-yl)phenyl)-4,7-dihydropyrazolo[1,5-a]pyrimidine-3-carboxylate] | 239 | 7350
25 | CCOC(=O)c1cnn2c(=O)cc(-c3ccc(C(F)(F)F)cc3)[nH]c12 [Example 23, Ethyl 7-oxo-5-(4-(trifluoromethyl)phenyl)-4,7-dihydropyrazolo[1,5-a]pyrimidine-3-carboxylate] | 834 | 1780
26 | CCNC(=O)c1cnn2c(=O)cc(-c3ccc(C(F)(F)F)cc3)[nH]c12 [Example 24, N-Ethyl-7-oxo-5-(4-(trifluoromethyl)phenyl)-4,7-dihydropyrazolo[1,5-a]pyrimidine-3-carboxamide] | 4380 | 80
27 | CNC(=O)c1cnn2c(=O)cc(-c3ccc(C(F)(F)F)cc3)[nH]c12 [Example 25, N-methyl-7-oxo-5-(4-(trifluoromethyl)phenyl)-4,7-dihydropyrazolo[1,5-a]pyrimidine-3-carboxamide] | 10400 | 212
28 | CCOC(=O)c1cnn2c(=O)cc(-c3ccc(C(F)(F)F)c(C)c3)[nH]c12 [Example 26, Ethyl 5-(3-methyl-4-(trifluoromethyl)phenyl)-7-oxo-4,7-dihydropyrazolo[1,5-a]pyrimidine-3-carboxylate] | 1410 | 956
29 | O=C(NC1CC1)c1cnn2c(=O)cc(-c3ccc(C(F)(F)F)cc3)[nH]c12 [Example 27, N-Cyclopropyl-7-oxo-5-(4-(trifluoromethyl)phenyl)-4,7-dihydropyrazolo[1,5-a]pyrimidine-3-carboxamide] | 3510 | 211
30 | CCOC(=O)c1c(C)nn2c(=O)cc(-c3ccc(Oc4ccccc4)cc3)[nH]c12 [Example 28, Ethyl 2-methyl-7-oxo-5-(4-phenoxyphenyl)-4,7-dihydropyrazolo[1,5-a]pyrimidine-3-carboxylate] | 393 | 3570
31 | CCOC(=O)c1c(C(C)C)nn2c(=O)cc(-c3ccc(Oc4ccccc4)cc3)[nH]c12 [Example 29, Ethyl 2-isopropyl-7-oxo-5-(4-phenoxyphenyl)-4,7-dihydropyrazolo[1,5-a]pyrimidine-3-carboxylate] | 124 | 249
32 | CCOC(=O)c1cnn2c(=O)cc(-c3ccc(C(C)(C)C)cc3)[nH]c12 [Example 30] | 95 | 1620
33 | CCOC(=O)c1cnn2c(=O)cc(-c3ccc(OC(C)C)cc3)[nH]c12 [Example 31, Ethyl 5-(4-isopropoxyphenyl)-7-oxo-4,7-dihydropyrazolo[1,5-a]pyrimidine-3-carboxylate] | 944 | 4040
